# Results: patent US20210045385A1, “PYRIDAZINONE-SUBSTITUTED KETOXIMES AS HERBICIDES” (FMC Corporation, priority 2018, published 2021)
# Assays:
# kochia (Kochia scoparia) [1] = assay: Test A postemergence, visual plant response rating; assay type: in vivo
# Outline: (§1)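 Greenhouse pot test in loam–sand soil mix: compound in a surfactant-containing non-phytotoxic solvent applied preemergence (directed soil spray) or postemergence (one- to two-leaf plants, 2–10 cm). Injury scored visually after ~10 days, 0–100.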
# corn (Zea mays) [2] = assay: Test A postemergence, visual plant response rating; assay type: in vivo
# Outline: as §1
# [3] = tested on: blackgrass (Alopecurus myosuroides); assay: Test A postemergence, visual plant response rating; assay type: in vivo
# Outline: as §1
# [4] = tested on: foxtail, giant (giant foxtail, Setaria faberii); assay: Test A postemergence, visual plant response rating; assay type: in vivo
# Outline: as §1
# [5] = tested on: barnyardgrass (Echinochloa crus-galli); assay: Test A postemergence, visual plant response rating; assay type: in vivo
# Outline: as §1
# [6] = tested on: wheat (Triticum aestivum); assay: Test A postemergence, visual plant response rating; assay type: in vivo
# Outline: as §1
# [7] = tested on: galium (catchweed bedstraw, Galium aparine); assay: Test A postemergence, visual plant response rating; assay type: in vivo
# Outline: as §1
# [8] = tested on: pigweed (Amaranthus retroflexus); assay: Test A postemergence, visual plant response rating; assay type: in vivo
# Outline: as §1
# [9] = tested on: Italian ryegrass (Lolium multiflorum); assay: Test A postemergence, visual plant response rating; assay type: in vivo
# Outline: as §1
# [10] = tested on: ragweed (common ragweed, Ambrosia elatior); assay: Test A postemergence, visual plant response rating; assay type: in vivo
# Outline: as §1
# [11] = tested on: ducksalad (Heteranhera limosa); assay: Test B flooded paddy test, visual plant response rating; assay type: in vivo; conditions: 250 g ai/ha, Flood, applied to paddy water, 2-leaf stage, evaluated after 13 to 15 days
# Outline: (§2)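 Seedlings at 2 leaves; compound into paddy water (3 cm flood, maintained); 13–15 d greenhouse; visual score relative to controls.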
# rice (Oryza sativa) [12] = assay: as above; assay type: in vivo; conditions: 250 g ai/ha, Flood, applied to paddy water, 2-leaf stage, evaluated after 13 to 15 days
# Outline: as §2
# [13] = tested on: barnyardgrass (Echinochloa crus-galli); assay: as above; assay type: in vivo; conditions: 250 g ai/ha, Flood, applied to paddy water, 2-leaf stage, evaluated after 13 to 15 days
# Outline: as §2
# [14] = tested on: sedge, umbrella (small-flower umbrella sedge, Cyperus difformis); assay: as above; assay type: in vivo; conditions: 250 g ai/ha, Flood, applied to paddy water, 2-leaf stage, evaluated after 13 to 15 days
# Outline: as §2
# kochia (Kochia scoparia) [15] = assay: Test A preemergence, visual plant response rating; assay type: in vivo
# Outline: as §1
# [16] = tested on: foxtail, giant (giant foxtail, Setaria faberii); assay: Test A preemergence, visual plant response rating; assay type: in vivo
# Outline: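 Ratings 0–100 (100 = complete control), visual, vs untreated controls at ~10 days. Application pre- or postemergence; solvent mixture with surfactant; loam/sand medium.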
# [17] = tested on: barnyardgrass (Echinochloa crus-galli); assay: Test A preemergence, visual plant response rating; assay type: in vivo
# Outline: as §1
# [18] = tested on: pigweed (Amaranthus retroflexus); assay: Test A preemergence, visual plant response rating; assay type: in vivo
# Outline: as §1
# [19] = tested on: Italian ryegrass (Lolium multiflorum); assay: Test A preemergence, visual plant response rating; assay type: in vivo
# Outline: as §1
# rice (Oryza sativa) [20] = assay: Test D flooded paddy test, visual plant response rating; assay type: in vivo; conditions: 250 g ai/ha, scale 0 to 100 (0 no effect, 100 complete control), 13 to 15 d
# Outline: (§3)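 Visual injury scores, 0 (no effect) to 100 (complete control), were assigned after 13 to 15 d in the greenhouse by comparison with controls. Test compounds had been added to paddy water covering soil by 3 cm at the 2-leaf stage.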
# [21] = tested on: sedge umbrella (small-flower umbrella sedge, Cyperus difformis); assay: as above; assay type: in vivo; conditions: 250 g ai/ha, scale 0 to 100 (0 no effect, 100 complete control), 13 to 15 d
# Outline: as §3
# [22] = tested on: barnyardgrass (Echinochloa crus-galli); assay: as above; assay type: in vivo; conditions: 250 g ai/ha, scale 0 to 100 (0 no effect, 100 complete control), 13 to 15 d
# Outline: as §3
# [23] = tested on: duck salad (Heteranthera limosa); assay: as above; assay type: in vivo; conditions: 250 g ai/ha, scale 0 to 100 (0 no effect, 100 complete control), 13 to 15 d
# Outline: as §3
# corn (Zea mays) [24] = assay: Test C postemergence, visual plant response rating; assay type: in vivo; conditions: Test C, postemergence
# Outline: (§4)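 Visual injury on a 0 (no effect) to 100 (complete control) scale versus untreated controls, scored approximately 10 d after treatment under greenhouse conditions. Treatments used surfactant-containing non-phytotoxic solvent formulations, sprayed onto loam–sand soil preemergence or onto one- to two-leaf plants 2–10 cm tall postemergence.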
# [25] = tested on: blackgrass (Alopecurus myosuroides); assay: Test C postemergence, visual plant response rating; assay type: in vivo; conditions: Test C, postemergence
# Outline: as §4
# [26] = tested on: barnyardgrass (Echinochloa crus-galli); assay: Test C postemergence, visual plant response rating; assay type: in vivo; conditions: Test C, postemergence
# Outline: as §4
# [27] = tested on: wheat (Triticum aestivum); assay: Test C postemergence, visual plant response rating; assay type: in vivo; conditions: Test C, postemergence
# Outline: as §4
# kochia (Bassia scoparia) [28] = assay: Test C postemergence, visual plant response rating; assay type: in vivo; conditions: Test C, postemergence
# Outline: as §4
# [29] = tested on: Italian ryegrass (Lolium mutiflorum); assay: Test C postemergence, visual plant response rating; assay type: in vivo; conditions: Test C, postemergence
# Outline: as §4
# [30] = tested on: pigweed (Amaranthus retroflexus); assay: Test C postemergence, visual plant response rating; assay type: in vivo; conditions: Test C, postemergence
# Outline: as §4
# [31] = tested on: foxtail, green (green foxtail, Setaria viridis); assay: Test C postemergence, visual plant response rating; assay type: in vivo
# Outline: as §4
# [32] = tested on: ragweed (common ragweed, Ambrosia artemisiifolia); assay: Test C postemergence, visual plant response rating; assay type: in vivo; conditions: Test C, postemergence
# Outline: as §4
# [33] = tested on: barnyardgrass (Echinochloa crus-galli); assay: Test C preemergence, visual plant response rating; assay type: in vivo
# Outline: as §4
# kochia (Bassia scoparia) [34] = assay: Test C preemergence, visual plant response rating; assay type: in vivo
# Outline: as §4
# [35] = tested on: Italian ryegrass (Lolium mutiflorum); assay: Test C preemergence, visual plant response rating; assay type: in vivo
# Outline: as §4
# [36] = tested on: pigweed (Amaranthus retroflexus); assay: Test C preemergence, visual plant response rating; assay type: in vivo
# Outline: as §4
# [37] = tested on: foxtail, green (green foxtail, Setaria viridis); assay: Test C preemergence, visual plant response rating; assay type: in vivo
# Outline: as §4
# [38] = tested on: ragweed (common ragweed, Ambrosia artemisiifolia); assay: Test C preemergence, visual plant response rating; assay type: in vivo
# Outline: as §4
# [39] = 500 g ai/ha, postemergence, 0 is no effect, 100 is complete control
# [40] = Postemergence, 125 g ai/ha, 0 to 100 scale (0 no effect, 100 complete control)
# [41] = 125 g ai/ha, preemergence, 0 to 100 scale, 0 no effect, 100 complete control
# [42] = 500 g ai/ha Preemergence, approx. 10 days
smiles,measurement,setting,value
"CO/N=C(\c1c(O)c(C)nn(C)c1=O)c1cc(Br)cc2ccccc12 [Compound 91, 4-[(Z)-(3-bromo-1-naphthalenyl)(methoxyimino)methyl]-5-hydroxy-2,6-dimethyl-3(2H)-pyridazinone]",Kochia plant response rating (0 to 100 scale),kochia (Kochia scoparia) [1]; [39],80
same,Kochia plant response rating,kochia (Kochia scoparia) [1]; [40],60
same,Corn plant response rating (0 to 100 scale),corn (Zea mays) [2]; [39],70
same,Corn plant response rating,corn (Zea mays) [2]; [40],30
same,Blackgrass plant response rating (0 to 100 scale),[3]; [39],100
same,Blackgrass plant response rating,[3]; [40],100
same,"Foxtail, Giant plant response rating (0 to 100 scale)",[4]; [39],90
same,"Foxtail, Giant plant response rating",[4]; [40],80
same,Barnyardgrass plant response rating (0 to 100 scale),[5]; [39],80
same,Barnyardgrass plant response rating,[5]; [40],80
same,Wheat plant response rating (0 to 100 scale),[6]; [39],80
same,Wheat plant response rating,[6]; [40],50
same,Galium plant response rating (0 to 100 scale),[7]; [39],100
same,Galium plant response rating,[7]; [40],100
same,Pigweed plant response rating (0 to 100 scale),[8]; [39],90
same,Pigweed plant response rating,[8]; [40],80
same,"Ryegrass, Italian plant response rating (0 to 100 scale)",[9]; [39],100
same,"Ryegrass, Italian plant response rating",[9]; [40],100
same,Ragweed plant response rating (0 to 100 scale),[10]; [39],100
same,Ragweed plant response rating,[10]; [40],100
same,"Plant response rating, Ducksalad (0 to 100 scale, 0 is no effect, 100 is complete control)",[11],60
same,"Plant response rating, Rice (0 to 100 scale, 0 is no effect, 100 is complete control)",rice (Oryza sativa) [12],20
same,"Plant response rating, Barnyardgrass (0 to 100 scale, 0 is no effect, 100 is complete control)",[13],65
same,"Plant response rating, Sedge, Umbrella (0 to 100 scale, 0 is no effect, 100 is complete control)",[14],60
same,Kochia plant response rating,kochia (Kochia scoparia) [15]; [41],60
same,Kochia plant response rating (0 to 100 scale),kochia (Kochia scoparia) [15]; [42],60
same,"Foxtail, Giant plant response rating",[16]; [41],100
same,"Foxtail, Giant plant response rating (0 to 100 scale)",[16]; [42],100
same,Barnyardgrass plant response rating,[17]; [41],100
same,Barnyardgrass plant response rating (0 to 100 scale),[17]; [42],100
same,Pigweed plant response rating,[18]; [41],100
same,Pigweed plant response rating (0 to 100 scale),[18]; [42],100
same,"Ryegrass, Italian plant response rating",[19]; [41],80
same,"Ryegrass, Italian plant response rating (0 to 100 scale)",[19]; [42],100
same,melting point,,129 to 133 °C
Cc1nn(C)c(=O)c(/C(=N\OCc2ccccc2)c2cccc(Cl)c2)c1O [Compound 149],"Plant response rating, Rice (Flood)",rice (Oryza sativa) [20],0
same,"Plant response rating, Sedge, Umbrella (Flood)",[21],0
same,"Plant response rating, Barnyardgrass (Flood)",[22],0
same,"Plant response rating, Ducksalad (Flood)",[23],0
same,Corn plant response rating (0 to 100 scale),corn (Zea mays) [24]; 125 g ai/ha,0
same,Corn plant response rating (0 to 100 scale),corn (Zea mays) [24]; 500 g ai/ha,0
same,Blackgrass plant response rating (0 to 100 scale),[25]; 125 g ai/ha,0
same,Blackgrass plant response rating (0 to 100 scale),[25]; 500 g ai/ha,0
same,Barnyardgrass plant response rating (0 to 100 scale),[26]; 125 g ai/ha,0
same,Barnyardgrass plant response rating (0 to 100 scale),[26]; 500 g ai/ha,0
same,Wheat plant response rating (0 to 100 scale),[27]; 125 g ai/ha,0
same,Wheat plant response rating (0 to 100 scale),[27]; 500 g ai/ha,0
same,Kochia plant response rating (0 to 100 scale),kochia (Bassia scoparia) [28]; 125 g ai/ha,0
same,Kochia plant response rating (0 to 100 scale),kochia (Bassia scoparia) [28]; 500 g ai/ha,0
same,"Ryegrass, Italian plant response rating (0 to 100 scale)",[29]; 125 g ai/ha,0
same,"Ryegrass, Italian plant response rating (0 to 100 scale)",[29]; 500 g ai/ha,10
same,Pigweed plant response rating (0 to 100 scale),[30]; 125 g ai/ha,0
same,Pigweed plant response rating (0 to 100 scale),[30]; 500 g ai/ha,0
same,"Foxtail, Green plant response rating (0 to 100 scale)",[31]; 125 g ai/ha,0
same,"Foxtail, Green plant response rating (0 to 100 scale)",[31]; 500 g ai/ha,0
same,Ragweed plant response rating (0 to 100 scale),[32]; 125 g ai/ha,0
same,Ragweed plant response rating (0 to 100 scale),[32]; 500 g ai/ha,0
same,Barnyardgrass plant response rating (0 to 100 scale),[33]; 125 g ai/ha,0
same,Barnyardgrass plant response rating (0 to 100 scale),[33]; 500 g ai/ha,0
same,Kochia plant response rating (0 to 100 scale),kochia (Bassia scoparia) [34]; 125 g ai/ha,0
same,Kochia plant response rating (0 to 100 scale),kochia (Bassia scoparia) [34]; 500 g ai/ha,0
same,"Ryegrass, Italian plant response rating (0 to 100 scale)",[35]; 125 g ai/ha,0
same,"Ryegrass, Italian plant response rating (0 to 100 scale)",[35]; 500 g ai/ha,0
same,Pigweed plant response rating (0 to 100 scale),[36]; 125 g ai/ha,0
same,Pigweed plant response rating (0 to 100 scale),[36]; 500 g ai/ha,20
same,"Foxtail, Green plant response rating (0 to 100 scale)",[37]; 125 g ai/ha,0
same,"Foxtail, Green plant response rating (0 to 100 scale)",[37]; 500 g ai/ha,0
same,Ragweed plant response rating (0 to 100 scale),[38]; 125 g ai/ha,0
same,Ragweed plant response rating (0 to 100 scale),[38]; 500 g ai/ha,0
